We go through 2 compounds from patent US8722731B2, “Furanyl compounds and the use thereof” (NovoMedix, LLC, priority 2010, dated 2014).

The subject of one assay is 1937. Nature of the assay: IC50 cell-based assay, adherent cells, 1937. The settings on record: Breast, triple neg, 72 hours, read-out: IC50 of Compounds in Adherent Cell Types. The protocol: (§1) In one embodiment, the IC50s of the compounds provided herein were determined in cell-based assays using adherent cells. In one embodiment, the activity of the compounds provided herein were determined in a cell-based assay using the triple negative breast cancer cell line MDA-MB-468. In one embodiment, the adherent cells used in the cell-based assays may be a cell type selected from Table 1. In one embodiment, the cell-based assay may be carried out as provided herein. On day 0, cells were seeded at 20,000 cells per well in 100 µL of media into individual wells of a 96-well tissue culture plate. The next day, compounds were diluted to twice the desired final concentration and added in 100 µL of media for a final volume of 200 μL. Standard solutions for each compound were prepared at 1000× concentration in DMSO. The highest concentration was 30 mM. Serial 1:1 dilutions were made from there for a 6- or 9-point curve (e.g., 30 mM, 15 mM, 7.5 mM, etc). Compounds were then diluted 1:500 in media, and 100 µL of the resulting solution was added to each well for a final dilution of 1:1000. Each concentration of compound was tested in triplicate. Cells were incubated at 37° C. with 5% CO2. After 72 hours, 20 μL of CellTiter 96 Aqueous One Solution Cell Proliferation Assay (Promega) was added to each well. Cells were placed back in the incubator, and the absorbance at 490 nm was read after 2-3 hours. The concentration of compound that decreased the number of metabolically active cells by 50% was determined and reported as the IC50. “Percent Viability” was determined by subtracting the average background value (media only) and expressed as a ratio to the average value obtained from cells treated with only DMSO.

The test system of another assay is A431. Kind of assay: IC50 cell-based assay, adherent cells, A431. The settings on record: Homo sapiens, A-431, Skin, epidermoid carcinoma, 72 hours, read-out: IC50 of Compounds in Adherent Cell Types. The protocol: as §1
The test system of the next assay is SupB15. Kind of assay: IC50 cell-based assay, suspension cells, SupB15. The settings on record: Homo sapiens, SUP-B15, Leukemia, B-ALL (Philadelphia chromosome+), read-out: IC50 of Compounds in Suspension Cell Types. Here is the method:
as §1
(§2) In one embodiment, the IC50s of the compounds provided herein were determined in cell-based assays using suspension cells. In one embodiment, the activity of the compounds provided herein were determined in a cell-based assay using the JeKo-1 cell line (mantle cell lymphoma) or the Pfeiffer cell line (diffuse large B-cell lymphoma). In one embodiment, the suspension cells used in the cell-based assays may be a cell type selected from Table 2. Assays with suspension cells were similar except that 40,000-60,000 cells were added to each well and compounds were added immediately after cell plating.

Another assay concerns HT-29. Nature of the assay: IC50 cell-based assay, adherent cells, HT-29. The settings on record: Homo sapiens, Colorectal, adenocarcinoma, 72 hours, read-out: IC50 of Compounds in Adherent Cell Types. Here is the method: as §1
For another assay, the system named is Nalm-6. Kind of assay: IC50 cell-based assay, suspension cells, Nalm-6. The settings on record: Homo sapiens, Leukemia, B-ALL, read-out: IC50 of Compounds in Suspension Cell Types. The protocol: as §1, §2
Another assay deals with MDA-MB-361. Nature of the assay: IC50 cell-based assay, adherent cells, MDA-MB-361. Particulars: Homo sapiens, Breast, Brain met Her2-neu + ER +, 72 hours, read-out: IC50 of Compounds in Adherent Cell Types. The protocol:
as §1

In a further assay the test system is MS1. Nature of the assay: IC50 cell-based assay, adherent cells, MS1. The settings on record: Mus musculus, MS-1, Pancreas, angiosarcoma, 72 hours, read-out: IC50 of Compounds in Adherent Cell Types. Here is the method:
(§3) In one embodiment, the IC50s of the compounds provided herein were determined in cell-based assays using adherent cells. In one embodiment, the activity of the compounds provided herein were determined in a cell-based assay using the triple negative breast cancer cell line MDA-MB-468. In one embodiment, the adherent cells used in the cell-based assays may be a cell type selected from Table 1. In one embodiment, the cell-based assay may be carried out as provided herein. On day 0, cells were seeded at 20,000 cells per well in 100 µL of media into individual wells of a 96-well tissue culture plate. The next day, compounds were diluted to twice the desired final concentration and added in 100 µL of media for a final volume of 200 μL. Standard solutions for each compound were prepared at 1000× concentration in DMSO. The highest concentration was 30 mM. Serial 1:1 dilutions were made from there for a 6- or 9-point curve (e.g., 30 mM, 15 mM, 7.5 mM, etc). Compounds were then diluted 1:500 in media, and 100 µL of the resulting solution was added to each well for a final dilution of 1:1000. […] Cells were placed back in the incubator, and the absorbance at 490 nm was read after 2-3 hours. […] “Percent Viability” was determined by subtracting the average background value (media only) and expressed as a ratio to the average value obtained from cells treated with only DMSO.

Another assay relates to BxPc-3. Kind of assay: IC50 cell-based assay, adherent cells, BxPc-3. The settings on record: Homo sapiens, Pancreas, adenocarcinoma, 72 hours, read-out: IC50 of Compounds in Adherent Cell Types. Here is the method:
as §3

The test system of a further assay is K562. Kind of assay: IC50 cell-based assay, suspension cells, K562. The settings on record: Homo sapiens, Leukemia, CML, read-out: IC50 of Compounds in Suspension Cell Types. Here is the method:
(§4) In one embodiment, the IC50s of the compounds provided herein were determined in cell-based assays using adherent cells. In one embodiment, the activity of the compounds provided herein were determined in a cell-based assay using the triple negative breast cancer cell line MDA-MB-468. In one embodiment, the adherent cells used in the cell-based assays may be a cell type selected from Table 1. In one embodiment, the cell-based assay may be carried out as provided herein. On day 0, cells were seeded at 20,000 cells per well in 100 µL of media into individual wells of a 96-well tissue culture plate. The next day, compounds were diluted to twice the desired final concentration and added in 100 µL of media for a final volume of 200 μL. […] Cells were placed back in the incubator, and the absorbance at 490 nm was read after 2-3 hours. […] “Percent Viability” was determined by subtracting the average background value (media only) and expressed as a ratio to the average value obtained from cells treated with only DMSO.
(§5) In one embodiment, the IC50s of the compounds provided herein were determined in cell-based assays using suspension cells. In one embodiment, the activity of the compounds provided herein were determined in a cell-based assay using the JeKo-1 cell line (mantle cell lymphoma) or the Pfeiffer cell line (diffuse large B-cell lymphoma). […]

The subject of another assay is HEK-293. Nature of the assay: IC50 cell-based assay, adherent cells, HEK-293. The settings on record: Homo sapiens, HEK293, Kidney, embryonic, 72 hours, read-out: IC50 of Compounds in Adherent Cell Types. Here is the method: as §3
The subject of the next assay is Mia PaCa-2. Kind of assay: IC50 cell-based assay, adherent cells, Mia PaCa-2. The settings on record: Homo sapiens, Pancreas, carcinoma, 72 hours, read-out: IC50 of Compounds in Adherent Cell Types. The protocol: as §3
The next assay has as its system MDA-MB-415. Nature of the assay: IC50 cell-based assay, adherent cells, MDA-MB-415. Particulars: Homo sapiens, Breast, adenocarcinoma, 72 hours, read-out: IC50 of Compounds in Adherent Cell Types. The protocol:
as §3

A further assay concerns SEMK. Nature of the assay: IC50 cell-based assay, suspension cells, SEMK. The settings on record: Leukemia, read-out: IC50 of Compounds in Suspension Cell Types. The protocol:
as §4, §5

In another assay the test system is Molt-4. Nature of the assay: IC50 cell-based assay, suspension cells, Molt-4. The settings on record: Homo sapiens, Leukemia, ALL, read-out: IC50 of Compounds in Suspension Cell Types. The protocol: as §4, §5
A further assay concerns MDA-MB-435. Nature of the assay: IC50 cell-based assay, adherent cells, MDA-MB-435. Particulars: Homo sapiens, Breast, carcinoma—ductal, 72 hours, read-out: IC50 of Compounds in Adherent Cell Types. The protocol: as §3
Another assay has as its system XPA-1. Kind of assay: IC50 cell-based assay, adherent cells, XPA-1. The settings on record: Pancreas, 72 hours, read-out: IC50 of Compounds in Adherent Cell Types. Here is the method: as §3
A further assay concerns Du145. Kind of assay: IC50 cell-based assay, adherent cells, Du145. The settings on record: Homo sapiens, DU-145, Prostate, carcinoma, 72 hours, read-out: IC50 of Compounds in Adherent Cell Types. Here is the method:
as §3

Consider `O=C(Nc1cc(C(F)(F)F)cc(C(F)(F)F)c1)c1cc(-c2ccc(Cl)cc2)oc1C(F)(F)F` [Compound 2, 5-(4-Chlorophenyl)-N-(3,5-bistrifluoromethylphenyl)-2-trifluoromethylfuran-3-carboxamide], for which the half-maximal inhibitory concentration (IC50) in the assay on 1937 was under 5 µM; in the assay with A431 it was under 5 µM; in the assay on SupB15, under 5 µM; in the assay on HT-29, 5 to 10 µM; in the assay with Nalm-6 it was under 5 µM; in the assay with MDA-MB-361 it was under 5 µM.
In the case of `O=C(Nc1cc(C(F)(F)F)cc(C(F)(F)F)c1)c1cc(-c2ccccc2)oc1C(F)(F)F` [Compound 1, 5-Phenyl-2-trifluoromethyl-furan-3-carboxylic acid (3,5-bis-trifluoromethyl-phenyl)-amide], the concentration for half-maximal inhibition (IC50) with MS1 is under 5 µM; in the assay on BxPc-3, 5 to 10 µM; in the assay on 1937 it was under 5 µM; in the assay with K562 it was under 5 µM; in the assay on HEK-293 it was under 5 µM; in the assay with A431, under 5 µM. For the same compound, the IC50 with Mia PaCa-2, in the assay on MDA-MB-415, with SupB15, in the assay on SEMK, in the assay with Molt-4 and in the assay on HT-29 was under 5 µM each time. Moreover, the 50% inhibitory concentration (IC50) in the assay on Nalm-6 is under 5 µM; in the assay on MDA-MB-435, under 5 µM; in the assay on XPA-1, 5 to 10 µM; in the assay with Du145, 5 to 10 µM; in the assay with MDA-MB-361, under 5 µM.

The term IC50 denotes the concentration that gives 50% inhibition.
